In patent publication US11160816B2, “Composition for treatment of Alzheimer's disease” (GLOVIA COMPANY LIMITED, priority 2017, dated 2021):

Assays:
[1] = system: oligodendrocyte progenitor cell; conditions: cultivation in the presence of the substance; cited from earlier work
[2] = system: oligodendrocyte precursor cells (OPCs); assay: Cultivation of oligodendrocyte precursor cells, phase-contrast observation of proliferation and differentiation (FIG. 2); format: cell-based, mice; conditions: final concentration of each 10 μM, cultivated for 48 hours, compared with control (PBS alone)
stroke patients = conditions: cited from earlier work
[3] = system: oligodendrocyte precursor cells (OPCs); assay: O1 antibody immunostaining of cultivated OPCs, ratio of O1 positive oligodendrocytes (FIG. 3); format: cell-based, mice; conditions: final concentration of each 0.1 mM, 48 hours, compared with control
[4] = system: mild to moderate Alzheimer patients; conditions: 400 mg capsule 3 times per day for 180 days; cited from earlier work
[5] = stroke patients, nonpatent document 6

SMILES	generation of p-21.5kDaMBP, proliferation and differentiation of oligodendrocyte progenitor cell [1]	proliferation and differentiation of OPCs (phase-contrast photos) [2]	cognitive abilities (stroke patients; 1000 mg per day for 28 days, then oral 400 mg per day for 5 months, 2,044 stroke patients)	harmful adverse drug reactions, share of patients (stroke patients; [5]) [%]	headache, share of patients (stroke patients; [5]) [%]	heartburn, share of patients (stroke patients; [5]) [%]	insomnia/agitation, share of patients (stroke patients; [5]) [%]	patients who hoped for stop of treatment (stroke patients; [5]) [%]	vomiturition/emesis, share of patients (stroke patients; [5]) [%]	ratio of O1 positive oligodendrocytes against the number of total cells [3]	cognitive function [4]
COc1ccc([C@@H]2CC(=O)c3c(O)cc(O[C@@H]4O[C@H](CO[C@@H]5O[C@@H](C)[C@H](O)[C@@H](O)[C@H]5O)[C@@H](O)[C@H](O)[C@H]4O)cc3O2)cc1O [hesperidin]	promoted the generation of p-21.5kDaMBP	proliferation and differentiation of OPCs proceeds	–	–	–	–	–	–	–	–	–
C[C@@H]1O[C@@H](OC[C@H]2O[C@@H](Oc3cc(O)c4c(c3)O[C@H](c3ccc(O)cc3)CC4=O)[C@H](O)[C@@H](O)[C@@H]2O)[C@H](O)[C@H](O)[C@H]1O [narirutin]	promoted the generation of p-21.5kDaMBP	proliferation and differentiation of OPCs proceeds	–	–	–	–	–	–	–	–	–
C[N+](C)(C)CCOP(=O)([O-])OC[C@H](O)CO [α-GPC, L-α-glycerylphosphorylcholine]	–	proliferation and differentiation of OPCs proceeds	recovery of the patients' cognitive abilities	2.14	0.2	0.7	0.4	0.7	0.5	hardly increases compared with the control	improving effect on cognitive function
